{"source": "patent EP3929178B1", "about": "“CRYSTAL FORM OF VALNEMULIN HYDROCHLORIDE HYDRATE, PREPARATION METHOD THEREFOR, AND PHARMACEUTICAL COMPOSITION CONTAINING CRYSTAL FORM” (Hubei Longxiang Pharmaceutical Co., Ltd., priority 2019, dated 2020)", "key": {"[1]": {"details": "reported for CN108892629A; cited from earlier work"}, "[2]": {"assay": "Influencing factor (stability) experiments on crystal forms under temperature and humidity", "format": "physicochemical", "details": "for content before placement: before placement (baseline of the stability study)", "protocol": "Conditions for purity detection by High Performance Liquid Chromatography (HPLC): octadecylsilane-bonded silica gel was used as filler (150 mm×4.6 mm, 3 µm); mobile phase A was phosphate buffer (pH 2.5); mobile phase B was phosphate buffer (pH 2.5)-acetonitrile (25:75); the flow rate was 1.5 ml per minute; the column temperature was 50 °C; and the detection wavelength was 200 nm. Linear gradient elution was performed according to the following table.\nTable 1 Comparative study on stability of valnemulin hydrochloride hydrate, amorphous substance and the comparative crystal form"}, "[3]": {"assay": "Hygroscopicity experiments", "format": "physicochemical", "from_the_text": "(§1) Table 1 Comparative study on stability of valnemulin hydrochloride hydrate, amorphous substance and the comparative crystal form The hydrate crystal and the amorphous substance and the crystal form of patent CN104876841B were compared in terms of bulk density, solubility, ect, as shown in the following table. Table 2 Physicochemical properties comparison of the valnemulin hydrochloride hydrate, the amorphous substance and the Comparative Example"}, "Bulk density comparison": {"assay": "Bulk density comparison", "format": "physicochemical", "from_the_text": "as §1, with “The” for “Table 1 Comparative study on stability of valnemulin hydrochloride hydrate, amorphous substance and the comparative crystal form The”"}, "[4]": {"assay": "Loss on granulation of aqueous solutions of amorphous product", "format": "physicochemical", "details": "granulated at 75 °C", "from_the_text": "For solid drugs, different solid forms will have an important impact on physical and chemical properties such as stability, solubility, dissolution rate, bulk density and fluidity, resulting in different efficacy and bioavailability during use. Therefore, for solid pharmaceutical products, the development of different solid forms is more conducive to choosing a suitable crystal form according to the characteristics of the pharmaceutical preparation. For valnemulin hydrochloride products, compared with crystalline products, the amorphous products have problems such as poor stability, easy hygroscopicity, poor appearance, poor fluidity, and difficult storage. At the same time, aqueous solutions of amorphous valnemulin hydrochloride products are unstable during preparation process. Experiments have shown that 11.6% loss is caused when granulated at 75 °C. Therefore, there is an urgent need to develop a stable valnemulin hydrochloride crystal product to meet market demand for veterinary drugs. […] There are very few reports on the crystal form of valnemulin hydrochloride and preparation method thereof."}, "[5]": {"details": "25 °C, 90% relative humidity, placed for 30 days, hydrochloride"}, "[6]": {"details": "40 °C, 75% relative humidity, placed for 30 days"}, "[7]": {"details": "40 °C, 75% relative humidity, placed for 30 days, hydrochloride"}, "[8]": {"details": "60 °C, 75% relative humidity, placed for 30 days"}, "[9]": {"details": "60 °C, 75% relative humidity, placed for 30 days, hydrochloride"}, "[10]": {"details": "60 °C, placed in normal humidity for 30 days, hydrochloride"}, "[11]": {"details": "25 °C, 90% relative humidity, placed for 30 days, listed as The crystal form of valnemulin hydrochloride hydrate (Example 1), hydrochloride hydrate"}, "[12]": {"details": "40 °C, 75% relative humidity, placed for 30 days, listed as The crystal form of valnemulin hydrochloride hydrate (Example 1), hydrochloride hydrate"}, "[13]": {"details": "60 °C, 75% relative humidity, placed for 30 days, listed as The crystal form of valnemulin hydrochloride hydrate (Example 1), hydrochloride hydrate"}, "[14]": {"details": "60 °C, placed in normal humidity for 30 days, listed as The crystal form of valnemulin hydrochloride hydrate (Example 1), hydrochloride hydrate"}, "[15]": {"details": "compared with the original amorphous product"}}, "note": "Where a name gives a salt, the structure may show the parent alone. Read-outs that look alike come from different tables or passages of the source.", "data": [{"smiles": "C=C[C@]1(C)C[C@@H](OC(=O)CSC(C)(C)CNC(=O)[C@H](N)C(C)C)[C@]2(C)[C@H](C)CC[C@]3(CCC(=O)[C@H]32)[C@@H](C)[C@@H]1O", "note": "[solvent-free compound, valnemulin hydrochloride]", "values": [{"measurement": "Bulk density", "setting": "[1]", "result": 0.305, "unit": "g/mL"}]}, {"smiles": "C=C[C@]1(C)C[C@@H](OC(=O)CSC(C)(C)CNC(=O)[C@H](N)C(C)C)[C@]2(C)[C@H](C)CC[C@]3(CCC(=O)[C@H]32)[C@@H](C)[C@@H]1O", "note": "[The crystal form of Comparative Example, valnemulin hydrochloride]", "values": [{"measurement": "Appearance change", "setting": "[2]; [5]", "result": "White solid"}, {"measurement": "Content after placement (%)", "setting": "[2]; [5]", "result": 99.21, "unit": "%"}, {"measurement": "Crystal form change", "setting": "[2]; [5]", "result": "Slight change"}, {"measurement": "Crystal form change", "setting": "[2]; [6]", "result": "No change"}, {"measurement": "Appearance change", "setting": "[2]; [7]", "result": "White solid"}, {"measurement": "Content after placement (%)", "setting": "[2]; [7]", "result": 99.18, "unit": "%"}, {"measurement": "Crystal form change", "setting": "[2]; [8]", "result": "No change"}, {"measurement": "Appearance change", "setting": "[2]; [9]", "result": "Light yellow solid"}, {"measurement": "Content after placement (%)", "setting": "[2]; [9]", "result": 98.69, "unit": "%"}, {"measurement": "Appearance change", "setting": "[2]; [10]", "result": "Light yellow solid"}, {"measurement": "Content after placement (%)", "setting": "[2]; [10]", "result": 98.39, "unit": "%"}, {"measurement": "Crystal form change", "setting": "[2]; [10]", "result": "No change"}, {"measurement": "With or without hygroscopicity", "setting": "[3]; [5]", "result": "Slightly"}, {"measurement": "With or without hygroscopicity", "setting": "[3]; [7]", "result": "Slightly"}, {"measurement": "With or without hygroscopicity", "setting": "[3]; [9]", "result": "Slightly"}, {"measurement": "With or without hygroscopicity", "setting": "[3]; [10]", "result": "Slightly"}, {"measurement": "hygroscopicity", "setting": "[3]; Table 2, hydrochloride", "result": 1.015, "unit": "%"}, {"measurement": "hygroscopicity", "setting": "[3]; summary in words of Table 1, listed as The crystal form of patent CN104876841B, hydrochloride", "result": "slightly hygroscopic"}, {"measurement": "Bulk density", "setting": "Bulk density comparison; hydrochloride", "result": 0.636, "unit": "g/mL"}]}, {"smiles": "C=C[C@]1(C)C[C@@H](OC(=O)CSC(C)(C)CNC(=O)[C@H](N)C(C)C)[C@]2(C)[C@H](C)CC[C@]3(CCC(=O)[C@H]32)[C@@H](C)[C@@H]1O", "note": "[The amorphous substance of valnemulin hydrochloride]", "values": [{"measurement": "Appearance change", "setting": "[2]; [5]", "result": "Yellow transparent viscous solid"}, {"measurement": "Content after placement (%)", "setting": "[2]; [5]", "result": 94.56, "unit": "%"}, {"measurement": "Appearance change", "setting": "[2]; [7]", "result": "Yellow transparent viscous solid"}, {"measurement": "Content after placement (%)", "setting": "[2]; [7]", "result": 90.82, "unit": "%"}, {"measurement": "Appearance change", "setting": "[2]; [9]", "result": "Yellow"}, {"measurement": "Content after placement (%)", "setting": "[2]; [9]", "result": 86.12, "unit": "%"}, {"measurement": "Appearance change", "setting": "[2]; [10]", "result": "Yellow solid"}, {"measurement": "Content after placement (%)", "setting": "[2]; [10]", "result": 89.18, "unit": "%"}, {"measurement": "content before placement", "setting": "[2]; listed as valnemulin hydrochloride amorphous substance, hydrochloride", "result": 97.50, "unit": "%"}, {"measurement": "With or without hygroscopicity", "setting": "[3]; [5]", "result": "Severe hygroscopic ity"}, {"measurement": "With or without hygroscopicity", "setting": "[3]; [7]", "result": "Severe hygroscopic ity"}, {"measurement": "With or without hygroscopicity", "setting": "[3]; [9]", "result": "Severe hygroscopic ity"}, {"measurement": "With or without hygroscopicity", "setting": "[3]; [10]", "result": "Hygroscopi city"}, {"measurement": "hygroscopicity", "setting": "[3]; Table 2, hydrochloride", "result": 8.86, "unit": "%"}, {"measurement": "hygroscopicity", "setting": "[3]; summary in words of Table 1, hydrochloride", "result": "absorbed moisture severely"}, {"measurement": "Bulk density", "setting": "Bulk density comparison; hydrochloride", "result": 0.338, "unit": "g/mL"}, {"measurement": "loss when granulated", "setting": "[4]", "result": 11.6, "unit": "%"}]}, {"smiles": "C=C[C@]1(C)C[C@@H](OC(=O)CSC(C)(C)CNC(=O)[C@H](N)C(C)C)[C@]2(C)[C@H](C)CC[C@]3(CCC(=O)[C@H]32)[C@@H](C)[C@@H]1O", "note": "[Example 1, valnemulin hydrochloride hydrate]", "values": [{"measurement": "Appearance change", "setting": "[2]; [11]", "result": "White solid"}, {"measurement": "Content after placement (%)", "setting": "[2]; [11]", "result": 99.23, "unit": "%"}, {"measurement": "Crystal form change", "setting": "[2]; [11]", "result": "No change"}, {"measurement": "Crystal form change", "setting": "[2]; [6]", "result": "No change"}, {"measurement": "Appearance change", "setting": "[2]; [12]", "result": "White solid"}, {"measurement": "Content after placement (%)", "setting": "[2]; [12]", "result": 99.20, "unit": "%"}, {"measurement": "Crystal form change", "setting": "[2]; [8]", "result": "No change"}, {"measurement": "Appearance change", "setting": "[2]; [13]", "result": "White solid"}, {"measurement": "Content after placement (%)", "setting": "[2]; [13]", "result": 98.78, "unit": "%"}, {"measurement": "Appearance change", "setting": "[2]; [14]", "result": "White solid"}, {"measurement": "Content after placement (%)", "setting": "[2]; [14]", "result": 98.47, "unit": "%"}, {"measurement": "Crystal form change", "setting": "[2]; [14]", "result": "No"}, {"measurement": "content before placement", "setting": "[2]; hydrochloride hydrate", "result": 99.25, "unit": "%"}, {"measurement": "stability", "setting": "[2]; [15]", "result": "enhanced stability"}, {"measurement": "stability", "setting": "[2]; summary in words of Table 1", "result": "stable"}, {"measurement": "With or without hygroscopicity", "setting": "[3]; [11]", "result": "Without hygroscopic ity"}, {"measurement": "With or without hygroscopicity", "setting": "[3]; [12]", "result": "Without hygroscopic ity"}, {"measurement": "With or without hygroscopicity", "setting": "[3]; [13]", "result": "Without hygroscopic ity"}, {"measurement": "With or without hygroscopicity", "setting": "[3]; [14]", "result": "Without"}, {"measurement": "hygroscopicity", "setting": "[3]; Table 2, listed as The crystal form of valnemulin hydrochloride hydrate (Example 1), hydrochloride hydrate", "result": 0, "unit": "%"}, {"measurement": "hygroscopicity", "setting": "[3]; [15]", "result": "no hygroscopicity"}, {"measurement": "Bulk density", "setting": "Bulk density comparison; [15]", "result": "large bulk density"}, {"measurement": "Bulk density", "setting": "Bulk density comparison; listed as The crystal form of valnemulin hydrochloride hydrate (Example 1), hydrochloride hydrate", "result": 0.596, "unit": "g/mL"}]}]}
